Where a name gives a salt, the structure may show the parent alone.
system: ATGL-KO iPSCs; experiment: High throughput iPSC chemical screening, Oil Red O (ORO) lipid accumulation; assay type: cell-based, mouse; details: not given; also: test concentration or dose not given here

Row | Compound | Z-score
1 | CN1CCc2cccc3c2[C@H]1Cc1ccc(O)c(O)c1-3.CN1CCc2cccc3c2[C@H]1Cc1ccc(O)c(O)c1-3.Cl.Cl.O | −0.2622
2 | O=C(O)C1CCCNC1 (racemic) [(±)-Nipecotic acid] | 0.6655
3 | CC(=C(CCO)SSCC1CCCO1)N(C=O)Cc1cnc(C)nc1N (stereo in doubt) [Fursultiamine Hydrochloride] | −0.696
4 | C[C@]12CC[C@@H](O)C[C@H]1CC[C@@H]1[C@@H]2CC[C@]2(C)C(=O)CC[C@@H]12 [3-alpha-Hydroxy-5-beta-androstan-17-one] | −0.187

same assay, conditions: normalized ORO level vs DMSO-treated cells; compound present during 7 days differentiation, 96-well; negative = decrease in lipid accumulation

Row | Compound | Z-score
5 | COc1ccc2c(c1)[C@]13CCCC[C@@H]1[C@H](C2)N(C)CC3 | −0.8776
6 | COc1cc2c(cc1OC)C(C)NCC2.Cl (stereo not shown) | 0.4756
7 | Cc1ccc(Cl)c(Nc2ccccc2C(=O)O)c1Cl | −1.2044
8 | CC(C)NCC(O)c1cc(O)cc(O)c1.CC(C)NCC(O)c1cc(O)cc(O)c1.O=S(=O)(O)O (stereo not shown) | −0.3842
9 | O=C(O)Cc1cc(I)c(Oc2ccc(O)c(I)c2)c(I)c1 | −0.9554
10 | CN(N=O)C(=O)N[C@H]1C(O)O[C@H](CO)[C@@H](O)[C@@H]1O (mixture of isomers) [Streptozotocin] | 0.0088
11 | Cl.NCC(O)c1ccc(O)cc1 (racemic) [(+,−)-Octopamine hydrochloride] | 0.9737
12 | CNCC(O)c1ccc(O)cc1 (racemic) [(+,−)-Synephrine] | −1.0448
13 | CN(Cc1cnc2nc(N)nc(N)c2n1)c1ccc(C(=O)N[C@@H](CCC(=O)O)C(=O)O)cc1 (racemic) [Amethopterin (R,S)] | 15.6786
14 | CC(=O)NC(CC(=O)O)C(=O)O (racemic) [Aspartic acid, N-acetyl (R,S)] | 0.7559
15 | NCC(CC(=O)O)c1ccc(Cl)cc1 (racemic) [Baclofen (R,S)] | 0.07861
16 | O.Oc1cc(O)c2c(c1)OC(c1ccc(O)c(O)c1)C(O)C2 (racemic) [Catechin-(+,−) hydrate] | −0.9777
17 | OCC(O)CN1CCN(c2ccccc2)CC1 (racemic) [Dropropizine (R,S)] | 0.6396
18 | Nc1c2c(nc3ccccc13)CCCC2O.O=C(O)/C=C\C(=O)O (racemic) [Hydroxytacrine maleate (R,S)] | −0.525
19 | Nc1c(O)cccc1C(=O)CC(N)C(=O)O (racemic) [Kynurenine, 3-hydroxy (R,S)] | 0.1567
20 | COc1ccc(CC2c3cc(OC)c(OC)cc3CCN2C)cc1OC (racemic) [Laudanosine (R,S)] | −0.5493
21 | COCCc1ccc(OCC(O)CNC(C)C)cc1.COCCc1ccc(OCC(O)CNC(C)C)cc1.O=C(O)C(O)C(O)C(=O)O (racemic) [Metoprolol-(+,−) (+)-tartrate salt] | −0.4304
22 | CC(=O)NC1CCSC1=O (racemic) [N-Acetyl-DL-homocysteine Thiolactone] | 0.1772
23 | CN1CCC2(C)c3cc(O)ccc3N(C)C12.O=C(O)/C=C/C(=O)O (single isomer, unassigned; (-)) [(−)-Eseroline fumarate salt] | −0.478
24 | CC(C)NCC(O)c1ccc(O)c(O)c1.Cl (single isomer, unassigned; (-)) [(−)-Isoproterenol hydrochloride] | 4.267
25 | CC(=O)NC1[C@@H](O)OC(CO)[C@@H](O)[C@H]1O[C@H](C)C(=O)O (stereo in doubt) [Muramic acid, N-acetyl] | 1.128
26 | Nc1ccccc1S(N)(=O)=O [2-Aminobenzenesulfonamide] | −1.9389
27 | Clc1cnccn1 [2-Chloropyrazine] | −0.5863
28 | CC(=O)Nc1cc2ccccc2oc1=O [3-Acetamidocoumarin] | 0.06786
29 | CC(=O)c1cc2ccccc2oc1=O [3-Acetylcoumarin] | −0.8473
30 | c1coc(CNc2ncnc3nc[nH]c23)c1 [6-Furfurylaminopurine] | 0.2192
31 | CN1C2CC(=O)CC1C(O)C2 (stereo not shown) [6-Hydroxytropinone] | 0.54

Source: patent US9393221B2, “Methods and compounds for reducing intracellular lipid storage” (THE GENERAL HOSPITAL CORPORATION, priority 2011, dated 2016)
